Assay results from patent publication US10342795B2, “Substituted 4,5,6,7-tetrahydro-pyrazolo[1,5-a]pyrimidine derivatives and 2,3-dihydro-1H-imidazo[1,2-b]pyrazole derivatives as ROS1 inhibitors” (Janssen Pharmaceutica NV, priority 2014, dated 2019).

Experiments:
[1] = target: Ba/F3 cells containing Ros1 wild-type protein (Homo sapiens, UniProt P08922, cells depend on it, form not given); assay: Ba/F3-Ros1 cell proliferation assay, wild-type Ros1, without IL-3; assay type: cell-based, murine; conditions: -log IC50 (M); wild-type Ros1, no IL-3, 24 h, Alamar Blue
Method: (§1) This assay was carried out with Ba/F3 cells containing three different versions of Ros1: the wild-type protein, protein with a mutation at the gatekeeper residue (L2026M), and protein with a mutation identified in a tumor from a patient that became resistant to crizotinib (Xalkori®) treatment (G2032R). Compounds were solubilized in 100% DMSO (dimethyl sulfoxide) and sprayed into polystyrene, tissue culture treated 384-well plates. A 50 μl volume of cell culture medium (phenol red free RPMI-1640, 10% FBS (fetal bovine serum), 2 mM L-Glutamine) containing 20000 Ba/F3-Ros1 cells was added to each well and the plates were placed in an incubator at 37° C. and 5% CO2. After 24 hours, 10 μl of Alamar Blue solution (0.5 mM K3Fe(CN)6, 0.5 mM K4Fe(CN)6, 0.15 mM Resazurin and 100 mM Phosphate Buffer) was added to the wells, incubated for 4 hours at 37° C. and 5% CO2 before RFU's (Relative Fluorescence Units) (ex. 540 nm., em. 590 nm.) were measured in a fluorescence plate reader.

[2] = test system: Ba/F3 cells containing Ros1 wild-type protein + IL-3; assay: Ba/F3-Ros1 cell proliferation counter-screen, wild-type Ros1 in the presence of murine IL-3; assay type: cell-based; conditions: Mus musculus, BaF3, 24 h; -log IC50 (M); wild-type Ros1, 10 ng/ml murine IL-3 (counter-screen); read-out: BaF3-ROS1 + IL3 pIC50 (converted)
Method: as §1
As a counter-screen the same experiment was performed for the wild-type protein in the presence of 10 ng/ml murine IL-3.

[3] = test system: HCC78 non-small cell lung cancer cells; assay: HCC78 cell proliferation assay; assay type: cell-based; conditions: Homo sapiens, HCC78, 96 h; -log EC50 (M); 4 days, MTT; read-out: HCC-78 PROL pEC50 (converted)
Method: Approximately 1000 HCC78 non-small cell lung cancer cells in 180 μl of cell culture medium (RPMI-1640, 10% FBS, 2 mM L-Glutamine, 10 mM Hepes, 1 mM sodium pyruvate, 4.5 g/L glucose, 1.5 g/L sodium bicarbonate, 25 μg/ml Gentamycin) were seeded in each well of a 96-well polystyrene, tissue-culture treated plate and incubated at 37° C. and 5% CO2. After 24 hours, compounds were diluted in cell culture medium from which 20 μl was added to the wells containing cells and incubated for 4 days at 37° C. and 5% CO2. A 5 mg/ml solution of the tetrazolium dye MTT was prepared in PBS (phosphate-buffered saline) and 25 μl was added to each well. After 2 hours the medium was removed and replaced by 125 μL of 4/1 DMSO/glycine buffer (0.1M glycine, 0.1M NaCl, pH 10.5) before absorbance was determined at 538 nm.

Ros1 enzyme = target: T1, Ros1 enzyme (Homo sapiens, UniProt P08922); assay: Ros1 enzymatic assay; assay type: biochemical; conditions: -log IC50 (M); 20 μM ATP, 120 min at room temperature; read-out: ROS1 pIC50 (converted)
T1 construct: 0.5 μg/ml Ros1 enzyme
Method: Compounds were spotted onto white 384-well Proxiplate plus plates (Perkin Elmer) to which 5 μl of enzyme mix (0.5 μg/ml Ros1 enzyme, 50 mM Tris-HCl pH7.5, 1 mM EGTA, 10 mM MgCl2, 0.01% Tween-20) and 5 μl of substrate mix (6 μg/ml IRS-Tide [American Peptide Company], 20 μM ATP, 13.33 μCi/ml ATP (adenosine 5′-triphosphate) P^33, 50 mM Tris-HCl pH7.5, 1 mM EGTA (ethylene glycol-bis(2-aminoethylether)-N,N,N′,N′-tetraacetic acid), 10 mM MgCl2, 0.01% Tween-20) were added. After incubation for 120 minutes at room temperature, 10 μl of stop reaction buffer (5 mM EDTA, 50 μM ATP, 0.1% BSA (bovine serum albumin), 0.1% Triton X-100, 50 mM Tris-HCl pH7.5, 1 mM EGTA, 10 mM MgCl2, 0.01% Tween-20) containing 2 mg/ml streptavidin coupled polystyrene imaging beads (Amersham Biosciences) was added and incubated for 15 minutes at room temperature. Plates were centrifuged for 3 minutes at 1500 rpm and signals detected in a LEADseeker imaging system (GE).

[4] = target: Ba/F3 cells containing Ros1 L2026M (Homo sapiens, UniProt P08922, L2026M, cells depend on it, form not given); assay: Ba/F3-Ros1 cell proliferation assay, L2026M gatekeeper mutant; assay type: cell-based, murine; conditions: -log IC50 (M), no IL-3
Method: as §1

[5] = target: Ba/F3 cells containing Ros1 G2032R (Homo sapiens, UniProt P08922, G2032R, cells depend on it, form not given); assay: Ba/F3-Ros1 cell proliferation assay, G2032R mutant; assay type: cell-based, murine; conditions: -log IC50 (M), no IL-3
Method: as §1

Ros pY2274 = Ros pY2274 (Homo sapiens, UniProt P08922); assay: pROS1 immunofluorescence assay in HCC78 cells; assay type: cell-based; conditions: -log IC50 (M); 4 hours, Ros1 pY2274 normalized to total Ros1
Method: Approximately 20000 HCC78 non-small cell lung cancer cells in 180 μl of cell culture medium (RPMI-1640, 10% FBS, 2 mM L-Glutamine, 10 mM Hepes, 1 mM sodium pyruvate, 4.5 g/L glucose, 1.5 g/L sodium bicarbonate, 25 μg/ml Gentamycin) were seeded in each well of a 96-well polystyrene, poly-D-lysine coated plate and incubated at 37° C. and 5% CO2. After 24 hours, compounds were diluted in cell culture medium from which 20 μl was added to the wells containing cells and incubated for 4 hours at 37° C. and 5% CO2. The medium was removed and the cells were fixed by adding 100 μl of 5% formaldehyde in TBS (tris-buffered saline) (50 mM Tris.HCl, pH 7.4, 150 mM NaCl) and incubating for 15 minutes at room temperature. The formaldehyde was removed and replaced with methanol for 10 minutes at room temperature, after which the cells were washed 3 times with TBS containing 1% Triton X-100 and incubated in Odyssee (Li-Cor) blocking buffer for 1 hour at room temperature. The cells were then incubated with the primary rabbit antibody directed against Ros pY2274 (cst-3078) diluted 1/200 in blocking buffer for 24 hours at room temperature. The cells were washed three times with TBS containing 0.1% Triton X-100 and incubated with a secondary anti-rabbit antibody conjugated to the fluorescent dye Alexafluor 680 in blocking buffer for 1 hour at room temperature. The cells were washed three times with TBS containing 0.1% Triton X-100 and left to dry before measuring RFUs (Relative Fluorescence Units) at 700 nm using a fluorescence imager. The same experiment was performed using total Ros1 antibody (sc-6347) diluted 1/1000 instead of Ros1 pY2274 antibody and an anti-goat antibody conjugated to IRDye800cw as a secondary antibody. RFUs were measured at […]. The signals from total Ros1 detection were used to normalize the Ros1pY2274 values.

Chain of Ba/F3 cells containing Ros1 wild-type protein (P08922 whole entry, stated change not applied): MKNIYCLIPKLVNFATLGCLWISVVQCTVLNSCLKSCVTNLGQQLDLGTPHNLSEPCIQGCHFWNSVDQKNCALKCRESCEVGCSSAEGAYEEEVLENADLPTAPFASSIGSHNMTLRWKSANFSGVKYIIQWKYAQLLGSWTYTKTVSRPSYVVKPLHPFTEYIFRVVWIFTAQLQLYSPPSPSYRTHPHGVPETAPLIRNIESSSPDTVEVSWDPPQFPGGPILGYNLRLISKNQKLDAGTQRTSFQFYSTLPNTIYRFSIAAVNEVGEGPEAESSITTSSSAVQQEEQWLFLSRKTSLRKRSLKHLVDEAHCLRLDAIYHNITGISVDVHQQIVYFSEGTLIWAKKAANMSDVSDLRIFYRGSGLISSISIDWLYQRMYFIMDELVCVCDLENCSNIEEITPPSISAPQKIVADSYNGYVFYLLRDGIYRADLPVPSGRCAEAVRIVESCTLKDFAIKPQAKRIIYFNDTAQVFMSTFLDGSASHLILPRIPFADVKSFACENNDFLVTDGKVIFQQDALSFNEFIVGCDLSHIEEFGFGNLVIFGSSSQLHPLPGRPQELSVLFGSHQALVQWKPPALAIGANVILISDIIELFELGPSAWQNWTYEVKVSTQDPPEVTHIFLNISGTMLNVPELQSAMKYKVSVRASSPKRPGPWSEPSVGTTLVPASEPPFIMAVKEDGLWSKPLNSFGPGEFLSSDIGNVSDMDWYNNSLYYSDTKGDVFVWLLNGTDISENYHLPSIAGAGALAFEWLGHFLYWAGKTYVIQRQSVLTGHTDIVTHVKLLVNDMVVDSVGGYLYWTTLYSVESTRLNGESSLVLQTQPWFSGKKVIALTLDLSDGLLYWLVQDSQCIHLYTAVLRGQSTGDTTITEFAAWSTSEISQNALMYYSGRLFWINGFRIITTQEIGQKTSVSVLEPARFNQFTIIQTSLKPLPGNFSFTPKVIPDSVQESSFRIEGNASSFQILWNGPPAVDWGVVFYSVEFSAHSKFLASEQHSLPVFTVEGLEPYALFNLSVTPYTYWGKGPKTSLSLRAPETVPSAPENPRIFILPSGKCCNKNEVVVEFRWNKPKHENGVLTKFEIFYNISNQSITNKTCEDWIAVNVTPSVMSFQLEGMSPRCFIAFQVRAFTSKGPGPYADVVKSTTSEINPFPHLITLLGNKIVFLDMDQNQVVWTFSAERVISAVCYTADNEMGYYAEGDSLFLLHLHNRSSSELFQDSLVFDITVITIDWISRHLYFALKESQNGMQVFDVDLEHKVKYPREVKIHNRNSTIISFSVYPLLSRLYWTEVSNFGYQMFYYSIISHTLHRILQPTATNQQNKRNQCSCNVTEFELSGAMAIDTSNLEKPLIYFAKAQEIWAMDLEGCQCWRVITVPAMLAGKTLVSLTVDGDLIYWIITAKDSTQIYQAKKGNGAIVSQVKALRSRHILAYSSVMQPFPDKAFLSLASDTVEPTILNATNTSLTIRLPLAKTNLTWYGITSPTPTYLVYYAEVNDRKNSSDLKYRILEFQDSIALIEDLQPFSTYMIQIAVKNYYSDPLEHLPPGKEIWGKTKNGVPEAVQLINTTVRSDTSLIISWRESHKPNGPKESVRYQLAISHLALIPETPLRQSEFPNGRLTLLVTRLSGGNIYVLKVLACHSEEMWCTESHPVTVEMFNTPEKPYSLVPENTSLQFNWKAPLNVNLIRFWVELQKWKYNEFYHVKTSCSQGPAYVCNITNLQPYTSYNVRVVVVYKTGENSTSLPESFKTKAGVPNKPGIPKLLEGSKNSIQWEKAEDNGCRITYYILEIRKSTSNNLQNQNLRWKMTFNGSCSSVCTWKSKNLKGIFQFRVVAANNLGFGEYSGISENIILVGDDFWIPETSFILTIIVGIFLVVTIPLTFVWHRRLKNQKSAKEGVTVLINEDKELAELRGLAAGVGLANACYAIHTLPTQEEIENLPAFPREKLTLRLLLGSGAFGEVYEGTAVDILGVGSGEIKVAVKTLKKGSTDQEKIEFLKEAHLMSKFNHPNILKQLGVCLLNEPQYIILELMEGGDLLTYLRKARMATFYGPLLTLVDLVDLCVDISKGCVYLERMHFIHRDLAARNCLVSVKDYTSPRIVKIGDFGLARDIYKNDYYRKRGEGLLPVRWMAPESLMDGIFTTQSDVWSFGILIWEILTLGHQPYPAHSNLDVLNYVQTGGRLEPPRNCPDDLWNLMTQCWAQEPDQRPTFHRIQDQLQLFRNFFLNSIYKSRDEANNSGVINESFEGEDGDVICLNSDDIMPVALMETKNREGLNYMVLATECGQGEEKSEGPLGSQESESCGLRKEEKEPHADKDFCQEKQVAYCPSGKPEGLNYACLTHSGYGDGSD
Chain of Ba/F3 cells containing Ros1 G2032R (P08922 whole entry G2032R, form open): as the sequence (P08922 whole entry, stated change not applied) above, with G2032R counted along it
Chain of Ros pY2274 (P08922 1750-2347): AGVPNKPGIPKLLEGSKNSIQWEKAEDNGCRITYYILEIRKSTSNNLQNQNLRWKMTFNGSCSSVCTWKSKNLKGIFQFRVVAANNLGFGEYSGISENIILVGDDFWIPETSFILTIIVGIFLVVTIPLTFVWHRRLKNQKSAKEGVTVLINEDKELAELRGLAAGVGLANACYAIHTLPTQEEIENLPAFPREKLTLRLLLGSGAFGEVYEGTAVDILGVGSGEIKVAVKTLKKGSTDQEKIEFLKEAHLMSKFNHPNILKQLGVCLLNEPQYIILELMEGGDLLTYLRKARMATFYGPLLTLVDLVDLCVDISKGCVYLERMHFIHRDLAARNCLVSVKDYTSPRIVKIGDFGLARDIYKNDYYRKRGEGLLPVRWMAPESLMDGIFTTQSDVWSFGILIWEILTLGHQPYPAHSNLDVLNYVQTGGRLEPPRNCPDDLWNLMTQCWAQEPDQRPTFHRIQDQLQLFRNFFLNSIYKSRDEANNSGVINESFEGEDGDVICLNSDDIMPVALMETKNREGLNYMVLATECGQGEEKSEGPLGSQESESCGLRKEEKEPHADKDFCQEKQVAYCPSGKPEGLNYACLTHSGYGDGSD
Chain of Ba/F3 cells containing Ros1 L2026M (P08922 whole entry L2026M, form open): as the sequence (P08922 whole entry, stated change not applied) above, with L2026M counted along it

SMILES	melting point	BaF3-ROS1 − IL3 pIC50 [1]	CC50 [2]	EC50 [3]	IC50 (Ros1 enzyme)	Ba/F3 Ros1 L2026M (-IL-3) pIC50 [4]	Ba/3 Ros1 G2032R (-IL-3) pIC50 [5]	HCC78 pRos pIC50 (Ros pY2274)
CC(C)c1ccc(COc2cc(F)c(-c3c(-c4ccncc4)nn4c3NCC4)cc2F)cc1 [Co. 2]	153 °C	~8.03	> 1e-05 M	1.26e-08 M	2.51e-08 M	7.7	–	–
CC(C)c1ccc(COc2ccc(-c3c(-c4ccncc4)nn4c3NCC4)cn2)cc1 [Co. 4]	159 °C	7.1	1.26e-06 M	6.31e-07 M	1e-07 M	7.1	–	–
CC(C)c1ccc(COc2ccc(-c3c(-c4ccncc4)nn4c3NCC4)c(F)c2)cc1 [Co. 5]	141 °C	7.1	> 1e-05 M	7.94e-07 M	~1.26e-07 M	<5	6.7	–
c1cc(-c2nn3c(c2-c2ccc(OCc4ccc(C5CC5)cc4)cc2)NCC3)ccn1 [Co. 7]	159 °C	6.8	> 1e-05 M	6.31e-07 M	2.51e-07 M	7.5	6.2	–
CC(C)c1ccc(COc2ccc(-c3c(-c4ccncc4)nn4c3NCC4)cc2)c(F)c1F [Co. 8]	149 °C	6.3	3.98e-06 M	2e-06 M	1.58e-06 M	7.5	–	–
CC(C)c1ccc(COc2ccc(-c3c(-c4ccncc4)nn4c3N(CCO)CC4)cc2)cc1 [Co. 10]	151 °C	7.1	> 1e-05 M	2.51e-06 M	1.26e-07 M	6.8	6.4	–
CC(C)c1ccc(COc2ccc(-c3c(-c4ccncc4)nn4c3NC(=O)C4)cc2)cc1 [Co. 13]	–	6.8	> 1e-05 M	5.01e-07 M	1.58e-07 M	6.7	–	6.8
CC(C)c1ccc(COc2ccc(-c3c(-c4ccncn4)nn4c3NCC4)cc2)cc1 [Co. 14]	109 °C	6.5	~7.41e-06 M	1e-06 M	3.98e-07 M	6.6	–	–
CC(C)c1ccc(COc2ccc(-c3c(-c4ccncc4)nn4c3NC(=O)CC4)cc2)cc1 [Co. 16]	290 °C	7.0	> 1e-05 M	1e-07 M	1.26e-07 M	7.3	–	~5.4
CC(C)c1ccc(COc2ccc(-c3c(-c4ccncc4)nn4c3NCCC4)cc2)cc1 [Co. 17]	205 °C	7.1	> 1e-05 M	1e-07 M	3.98e-08 M	6.9	–	7.6
CC(C)c1ccc(COc2ccc(-c3c(-c4ccncc4)nn4c3NCCC4)c(F)c2)cc1 [Co. 18]	188 °C	7.6	> 1e-05 M	3.98e-07 M	2e-08 M	7.8	–	–
CC(C)c1ccc(COc2ccc(-c3c(-c4ccncc4)nn4c3N(C)CCC4)cc2)cc1 [Co. 19]	120 °C	6.7	> 1e-05 M	7.94e-07 M	1e-07 M	6.4	–	–
CC(C)c1ccc(COc2ccc(-c3c(-c4ccncc4)nn4c3NC(CO)CC4)cc2)cc1 (centres unmarked) [Co. 24]	199 °C	7.5	7.94e-06 M	7.94e-08 M	6.31e-08 M	7.6	–	–
CC(C)c1ccc(COc2ccc(-c3c(-c4ccncc4)nn4c3NCCC4CO)cc2)cc1 (centres unmarked) [Co. 25]	155 °C	7.0	> 1e-05 M	7.94e-07 M	1.26e-07 M	6.8	–	–
CC(C)c1ccc(COc2ccc(-c3c(-c4ccncc4)nn4ccc(=O)[nH]c34)cc2)cc1 [Co. E]	243 °C	7.1	> 1e-05 M	5.01e-07 M	6.31e-08 M	6.9	–	–
CNC(=O)c1ccnc2c(-c3ccc(OCc4ccc(C(C)C)cc4)cc3)c(-c3ccncc3)nn12 [Co. J]	207 °C	6.8	> 1e-05 M	2e-06 M	5.01e-07 M	6.8	–	–
